The values below come from ChEMBL document CHEMBL2040836, “1,3,8-Triazaspiro[4.5]decane-2,4-diones as efficacious pan-inhibitors of hypoxia-inducible factor prolyl hydroxylase 1-3 (HIF PHD1-3) for the treatment of anemia” (J Med Chem, 2012).

Data set [1] can be described thus: in vivo. As to conditions: Sprague-Dawley, rat.
A short description of data set [2]: in vivo. The conditions noted are these: Sprague-Dawley, rat. This is another data set of the same source.
Data set [3] can be described thus: in vivo. The conditions noted are these: Sprague-Dawley, rat. This is another data set of the same source.
Data set [4] is described as follows: in vivo. As to conditions: Sprague-Dawley, rat. This is another data set of the same source.
Data set [5] is described as follows: in vivo. As to conditions: Sprague-Dawley, rat, po.
A short description of data set [6]: AUC in Sprague-Dawley rat. Also noted: concentration or dose not given beside the values. In kind it is ADME, organism-based. The conditions noted are these: plasma.
Data set [7] in a line: Metabolic stability in rat liver microsomes assessed as compound remaining after 30 mins. In kind it is ADME, Microsome. The conditions noted are these: read-out: Stability.
Data set [8] is described as follows: Cmax in mouse at 5 mg/kg, po. In kind it is ADME, organism-based. Also noted: dose 5 mg/kg, route oral. The conditions noted are these: in vivo.
For data set [9], the system named is Mus musculus. The data set is described as follows: Volume of distribution at steady state in mouse at 5 mg/kg, po. In kind it is ADME, organism-based. Also noted: dose 5 mg/kg, route oral. The conditions noted are these: in vivo.
Data set [10] deals with Mus musculus. The data set is described as follows: (§1) Half life in mouse at 5 mg/kg, po. The data set is classed as ADME, organism-based. Further details: dose 5 mg/kg, route oral. As to conditions: in vivo.
Data set [11] in a line: Oral bioavailability in mouse at 5 mg/kg. As to conditions: in vivo. The data set is classed as ADME, organism-based.
Data set [12] is described as follows: Clearance in mouse at 5 mg/kg, po. Also noted: dose 5 mg/kg, route oral. The data set is classed as ADME, organism-based. The conditions noted are these: in vivo.
Data set [13] is described as follows: as §1. The data set is classed as ADME, organism-based. Also noted: dose 5 mg/kg, route oral. The conditions noted are these: in vivo.
The test system of data set [14] is Mus musculus. Put plainly: Toxicity in C57BL/6 mouse assessed as increase in liver ALT level at 50 mg/kg, iv. The data set is classed as organism-based. Further details: dose 50 mg/kg, route intravenous. The conditions noted are these: in vivo.
Data set [15] in a line: AUC in mouse at 5 mg/kg, po. Further details: dose 5 mg/kg, route oral. The data set is classed as ADME, organism-based. As to conditions: plasma.
Data set [16] can be described thus: Cmax in dog. As to conditions: in vivo. In kind it is ADME, organism-based, Canis lupus familiaris.
A short description of data set [17]: Clearance in dog. The data set is classed as ADME, organism-based, Canis lupus familiaris. The conditions noted are these: in vivo.
Data set [18] in a line: Volume of distribution at steady state in dog. The data set is classed as ADME, organism-based, Canis lupus familiaris. As to conditions: in vivo, read-out: Vdss.
Data set [19] in a line: Half life in dog. The data set is classed as ADME, organism-based, Canis lupus familiaris. The conditions noted are these: in vivo.
Data set [20] is described as follows: AUC in dog. The conditions noted are these: plasma. The data set is classed as ADME, organism-based, Canis lupus familiaris.
Data set [21] is described as follows: Oral bioavailability in dog. In kind it is ADME, organism-based, Canis lupus familiaris. The conditions noted are these: in vivo.
Data set [22] can be described thus: Toxicity in iv dosed C57BL/6 mouse assessed as no observable effect level. The data set is classed as organism-based. As to conditions: in vivo.
Data set [23] relates to Mus musculus. Put plainly: Toxicity in C57BL/6 mouse assessed as increase in liver ALT level at 15 mg/kg, iv. The data set is classed as organism-based. Further details: dose 15 mg/kg, route intravenous. The conditions noted are these: in vivo.

Structures are written as SMILES. Where only a bound is given, the exact number is not on record here.

As to `Cc1cccnc1CN1CCC2(CC1)C(=O)N(c1ccc(-c3ccccc3)cc1)C(=O)N2c1ncccn1`, the clearance in “in vivo [1]” was determined as 51 mL/min/kg. The compound also came in with a Cmax in the data set “in vivo [2]” of 101 nM. For the same compound, in the data set “in vivo [3]”, the Vd came out at 2.1 L/kg. The same compound gave a half-life in the data set “in vivo [4]” of 1.1 h. This compound also returned a bioavailability in “in vivo [5]” of 18%.
On the same counts, the results for `Cc1cccnc1CN1CCC2(CC1)C(=O)N(c1ccc(-c3ccccc3)cc1)C(=O)N2c1ccc(O)nn1` are 40 mL/min/kg, 300 nM, 1.1 L/kg, 1.2 h and 58%.
On the same counts, the results for `Cc1cccnc1CN1CCC2(CC1)C(=O)N(c1ccc(-c3ccc(C(=O)O)cc3)cc1)C(=O)N2c1ccncn1` are 16 mL/min/kg, 580 nM, 2 L/kg, 2.2 h and 8%.
`Cc1cccnc1CN1CCC2(NC(=O)N(c3ccc(-c4ccccc4)cc3)C2=O)C(C(=O)O)C1` (stereo unspecified) returned an AUC in data set [6] of 3.2 µM·h. In the data set “in vivo [1]”, the clearance amounted to 11 mL/min/kg. The compound also yielded a Cmax in “in vivo [2]” of 40 nM. The compound also came in with a Vd in the data set “in vivo [3]” of 0.58 L/kg. The half-life in the data set “in vivo [4]” was 1.1 h. Also, in “in vivo [5]”, the bioavailability was determined as 14%.
Turning to `Cn1ccnc1CN1CCC2(CC1)C(=O)N(c1cnc3ccccc3c1)c1ccccc12`, in data set [7], the remaining at 0.5 h is below 10%.
In [6], `Cc1cccnc1CN1CCC2(CC1)C(=O)N(c1ccc(-c3ccccc3)cc1)c1ncccc12` showed an AUC of 0.6 µM·h. The clearance in the data set “in vivo [1]” stood at 59 mL/min/kg. Further, in the data set “in vivo [2]”, the peak level (Cmax) was 40 nM. Further, the Vd in the data set “in vivo [3]” turned out to be 8 L/kg. Also, the half-life in “in vivo [4]” was 1.9 h. The bioavailability in “in vivo [5]” is 0%.
`Cc1cccnc1CN1CCC2(CC1)C(=O)N(c1ccc(-c3ccc(C(=O)O)cc3)cc1)C(=O)N2c1ncccn1` showed a clearance in the data set “in vivo [1]” of 51 mL/min/kg. In “in vivo [2]”, the peak level (Cmax) was 100 nM. Also, the Vd in “in vivo [3]” was found to be 2.2 L/kg. Besides, in the data set “in vivo [4]”, the half-life is 1.1 h. The compound also displayed a bioavailability in the data set “in vivo [5]” of 18%.
`Cc1cccnc1CN1CCC2(C(=O)N(c3ccc(-c4ccccc4)cc3)C(=O)N2c2cc(O)ncn2)C(C(=O)O)C1` (stereo unspecified): the values for the Cmax (in data set [8]; in “in vivo [2]”) were 300 nM and 63 nM, respectively. The same compound registered a Vdss with Mus musculus [9] of 0.4 L/kg. In the data set on Mus musculus [10], this compound displayed a t1/2 of 2.1 h. In addition, the bioavailability in data set [11] worked out at 7.1%; in “in vivo [5]”, 4.3%. This compound also displayed a clearance in the data set “in vivo [1]” of 1.2 mL/min/kg. The same compound showed a Vd in “in vivo [3]” of 0.34 L/kg. In addition, the half-life in the data set “in vivo [4]” is 3.6 h.
As for `Cc1cccnc1CN1CCC2(CC1)C(=O)N(c1cnc3ccccc3c1)c1ccccc12`, in data set [7], the remaining at 0.5 h turned out to be 35%.
With `Cc1cccnc1CN1CCC2(CC1)NC(=O)N(c1ccc(-c3ccccc3)cc1)C2=O`, the AUC in data set [6] turned out to be 0.14 µM·h. In the data set “in vivo [1]”, the clearance was determined as 275 mL/min/kg. The same compound showed a Cmax in “in vivo [2]” of 17 nM. This compound also gave a Vd in the data set “in vivo [3]” of 2.6 L/kg. In addition, the half-life in the data set “in vivo [4]” is 0.12 h. The same compound yielded a bioavailability in the data set “in vivo [5]” of 42%.
For `COc1cc(N2C(=O)N(c3ccc(-c4ccc(C(=O)O)cc4)cc3)C(=O)C23CCN(Cc2ncccc2C)CC3)ncn1`, the Cmax is 6100 nM in [8] and 1900 nM in “in vivo [2]”. Also, in [12], the CL/F is 1.2 mL/min/kg. For the same compound, the Vdss in the data set with Mus musculus [9] was determined as 0.4 L/kg. The half-life was 3.7 h in data set [13] and 2.6 h in the data set “in vivo [4]”. Further, the bioavailability in data set [11] was 36%; in “in vivo [5]”, 92%. Also, the clearance in “in vivo [1]” is 8.8 mL/min/kg. The Vd in the data set “in vivo [3]” came out at 1.7 L/kg.
In [6], `Cc1cccnc1CN1CCC2(CC1)C(=O)N(c1ccc(-c3ccccc3)cc1)c1ccccc12` returned an AUC of 1.2 µM·h. The compound further yielded a clearance in “in vivo [1]” of 30 mL/min/kg. Besides, the Cmax in “in vivo [2]” worked out at 79 nM. In “in vivo [3]”, this compound registered a Vd of 8.2 L/kg. Further, the half-life in the data set “in vivo [4]” was 3 h. The compound further showed a bioavailability in the data set “in vivo [5]” of 11%.
On to `COc1cc(N2C(=O)N(c3ccc(-c4ccc(C(N)=O)cc4)cc3)C(=O)C23CCN(Cc2ncccc2C)CC3)ncn1`, for which the “fold change (FC)” value in the data set with Mus musculus [14] was 6.6.
In the case of `Cc1cccnc1CN1CCC2(CC1)C(=O)N(c1ccc(-c3ccccc3)cc1)C(=O)N2c1nccc(O)n1`, the exposure (AUC) in data set [6] came out at 3.7 µM·h; in data set [15] it was 1.4 µM·h; in data set [20], 41 µM·h. Also, the values for the Cmax (in data set [8]; in data set [16]; in the data set “in vivo [2]”) were 990 nM, 1500 nM and 990 nM, respectively. The compound also showed a CL/F in data set [12] of 13 mL/min/kg. In the data set with Mus musculus [9], this compound gave a Vdss of 1.3 L/kg. The half-life in [13] was 1.4 h; in [19], 13 h; in the data set “in vivo [4]”, 1.1 h. The bioavailability in data set [11] came out at 78%; in [21], 26%; in the data set “in vivo [5]”, 66%. The results for the clearance (in data set [17]; in the data set “in vivo [1]”) were 1.3 mL/min/kg and 9 mL/min/kg, respectively. In addition, the Vd in [18] turned out to be 1.1 L/kg; in the data set “in vivo [3]” it was 0.72 L/kg.
In turn, `Cc1cc(C(=O)O)ccc1-c1ccc(N2C(=O)N(c3cnccn3)C3(CCN(Cc4ncccc4C)CC3)C2=O)cc1` registered a clearance in the data set “in vivo [1]” of 22 mL/min/kg. In the data set “in vivo [2]”, this compound displayed a Cmax of 390 nM. Further, the Vd in the data set “in vivo [3]” stood at 1.6 L/kg. This compound also gave a half-life in the data set “in vivo [4]” of 1.5 h. Also, in the data set “in vivo [5]”, the bioavailability was determined as 29%.
In “in vivo [1]”, `Cc1cc(C(=O)O)ccc1-c1ccc(N2C(=O)N(c3ccncn3)C3(CCN(Cc4ncccc4C)CC3)C2=O)cc1` had a clearance of 34 mL/min/kg. This compound returned a Cmax in the data set “in vivo [2]” of 390 nM. The compound further came in with a Vd in “in vivo [3]” of 1.9 L/kg. Besides, the half-life in the data set “in vivo [4]” is 1.1 h. The bioavailability in the data set “in vivo [5]” is 47%.
Take `COc1cc(N2C(=O)N(c3ccc(-c4ccc(C(=O)O)cc4C)cc3)C(=O)C23CCN(Cc2ncccc2C)CC3)ncn1`: the NOAEL in [22] worked out at 50 mg/kg. This compound also gave a clearance in the data set “in vivo [1]” of 11.9 mL/min/kg. In “in vivo [2]”, this compound showed a Cmax of 570 nM. In the data set “in vivo [3]”, this compound displayed a Vd of 4.3 L/kg. In addition, the half-life in the data set “in vivo [4]” is 4.1 h. The bioavailability in “in vivo [5]” was found to be 64%.
`COc1cc(N2C(=O)N(c3ccc(-c4cccc(C(=O)O)c4)cc3)C(=O)C23CCN(Cc2ncccc2C)CC3)ncn1`: the “fold change (FC)” value in the data set with Mus musculus [23] was 6.1.
Compound `Cc1cccnc1CN1CCC2(CC1)C(=O)N(c1ccc(-c3ccccc3)cc1)C(=O)N2c1ccnc(O)n1` gave a clearance in the data set “in vivo [1]” of 14 mL/min/kg. Moreover, in “in vivo [2]”, the peak level (Cmax) was 1300 nM. The compound also registered a Vd in “in vivo [3]” of 0.9 L/kg. In addition, the half-life in “in vivo [4]” was 1.2 h. In the data set “in vivo [5]”, the bioavailability turned out to be 39%.
For `Cc1cccnc1CN1CCC2(CC1)C(=O)N(c1ccc(-c3ccccc3)cc1)C(=O)N2c1cc(O)ccn1`, in that order: 35 mL/min/kg, 340 nM, 1.4 L/kg, 0.5 h and 49%.
